Assay: Anticancer human tumor 997537-175-T-J1-PDC patient-derived colon adenocarcinoma cell line growth inhibition [POLQ]
Conditions: 997537-175-T-J1-PDC complex spheroid viability, combination with POLQ inhibitors; for IC50: curve of first compound; for viability, T/C: stronger effect = lower value
In short: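 PDC + HUVEC + MSC complex spheroids; POLQ inhibitors ± partner drugs; top conc. at/near clinical Cmax, else 10 microM (SN-38 1 microM), half-log dilutions; 37 degrees C, 5% CO2.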

[1] = second compound 0.0316 µM, first compound 0.0316 µM
[2] = second compound 0.0316 µM, first compound 0.1 µM
[3] = second compound 0.1 µM, first compound 0.0316 µM
[4] = second compound 0.1 µM, first compound 0.1 µM
[5] = second compound 0.316 µM, first compound 0.0316 µM
[6] = second compound 0.316 µM, first compound 0.1 µM
[7] = second compound 1 µM, first compound 0.0316 µM
[8] = second compound 1 µM, first compound 0.1 µM
[9] = second compound 3.16 µM, first compound 0.0316 µM
[10] = second compound 3.16 µM, first compound 0.1 µM
[11] = second compound 10 µM, first compound 0.0316 µM
[12] = second compound 10 µM, first compound 0.1 µM
[13] = second compound 0.0316 µM, first compound 0.316 µM
[14] = second compound 0.0316 µM, first compound 1 µM
[15] = second compound 0.0316 µM, first compound 3.16 µM
[16] = second compound 0.0316 µM, first compound 10 µM
[17] = second compound 0.1 µM, first compound 0.316 µM
[18] = second compound 0.1 µM, first compound 1 µM
[19] = second compound 0.1 µM, first compound 3.16 µM
[20] = second compound 0.1 µM, first compound 10 µM
[21] = second compound 0.316 µM, first compound 0.316 µM
[22] = second compound 0.316 µM, first compound 1 µM
[23] = second compound 0.316 µM, first compound 3.16 µM
[24] = second compound 0.316 µM, first compound 10 µM
[25] = second compound 1 µM, first compound 0.316 µM
[26] = second compound 1 µM, first compound 1 µM
[27] = second compound 1 µM, first compound 3.16 µM
[28] = second compound 1 µM, first compound 10 µM
[29] = second compound 3.16 µM, first compound 0.316 µM
[30] = second compound 3.16 µM, first compound 1 µM
[31] = second compound 3.16 µM, first compound 3.16 µM
[32] = second compound 3.16 µM, first compound 10 µM
[33] = second compound 10 µM, first compound 0.316 µM
[34] = second compound 10 µM, first compound 1 µM
[35] = second compound 10 µM, first compound 3.16 µM
[36] = second compound 10 µM, first compound 10 µM
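Further: luminescence signal used as a surrogate for viable cells; spheroids exposed to drugs for seven days before readout.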

## Cn1ncnc1[C@H]1c2n[nH]c(=O)c3cc(F)cc(c23)N[C@@H]1c1ccc(F)cc1 + Cc1cccc(N(C)C(=O)C2C(O)CCN2c2nc(C)cc(C(F)(F)F)c2C#N)c1
Second compound 0.0316 µM
  IC50: > 0.1 µM
Second compound 0.1 µM
  IC50: > 0.1 µM
Second compound 0.316 µM
  IC50: > 0.1 µM
Second compound 1 µM
  IC50: > 0.1 µM
Second compound 3.16 µM
  IC50: > 0.1 µM
Second compound 10 µM
  IC50: > 0.1 µM
Second compound 0.0316 µM, first compound 0.000316 µM
  viability, T/C: 98%
Second compound 0.0316 µM, first compound 0.001 µM
  viability, T/C: 109%
Second compound 0.0316 µM, first compound 0.00316 µM
  viability, T/C: 93.5%
Second compound 0.0316 µM, first compound 0.01 µM
  viability, T/C: 98.6%
[1]
  viability, T/C: 110%
[2]
  viability, T/C: 90%
Second compound 0.1 µM, first compound 0.000316 µM
  viability, T/C: 94.8%
Second compound 0.1 µM, first compound 0.001 µM
  viability, T/C: 113%
Second compound 0.1 µM, first compound 0.00316 µM
  viability, T/C: 76.2%
Second compound 0.1 µM, first compound 0.01 µM
  viability, T/C: 119%
[3]
  viability, T/C: 113%
[4]
  viability, T/C: 97.6%
Second compound 0.316 µM, first compound 0.000316 µM
  viability, T/C: 90.6%
Second compound 0.316 µM, first compound 0.001 µM
  viability, T/C: 102%
Second compound 0.316 µM, first compound 0.00316 µM
  viability, T/C: 94.3%
Second compound 0.316 µM, first compound 0.01 µM
  viability, T/C: 94.6%
[5]
  viability, T/C: 91.1%
[6]
  viability, T/C: 91.4%
Second compound 1 µM, first compound 0.000316 µM
  viability, T/C: 92.6%
Second compound 1 µM, first compound 0.001 µM
  viability, T/C: 109%
Second compound 1 µM, first compound 0.00316 µM
  viability, T/C: 96.1%
Second compound 1 µM, first compound 0.01 µM
  viability, T/C: 100%
[7]
  viability, T/C: 98.3%
[8]
  viability, T/C: 84.4%
Second compound 3.16 µM, first compound 0.000316 µM
  viability, T/C: 105%
Second compound 3.16 µM, first compound 0.001 µM
  viability, T/C: 109%
Second compound 3.16 µM, first compound 0.00316 µM
  viability, T/C: 95.6%
Second compound 3.16 µM, first compound 0.01 µM
  viability, T/C: 91.5%
[9]
  viability, T/C: 92.1%
[10]
  viability, T/C: 94.7%
Second compound 10 µM, first compound 0.000316 µM
  viability, T/C: 102%
Second compound 10 µM, first compound 0.001 µM
  viability, T/C: 93.1%
Second compound 10 µM, first compound 0.00316 µM
  viability, T/C: 89.8%
Second compound 10 µM, first compound 0.01 µM
  viability, T/C: 84.4%
[11]
  viability, T/C: 84.4%
[12]
  viability, T/C: 99.3%

## COc1cc2cc(C(=O)CCC(=O)O)sc2cc1OC + Nc1ccc(C#CCN(C(=O)Cc2ncc(C(F)(F)F)cc2C(F)(F)F)c2ccc(F)cc2)nn1
Second compound 0.0316 µM
  IC50: > 10 µM
Second compound 0.1 µM
  IC50: > 10 µM
Second compound 0.316 µM
  IC50: > 10 µM
Second compound 1 µM
  IC50: > 10 µM
Second compound 3.16 µM
  IC50: > 10 µM
Second compound 10 µM
  IC50: > 10 µM
[1]
  viability, T/C: 107%
[2]
  viability, T/C: 107%
[13]
  viability, T/C: 109%
[14]
  viability, T/C: 99.7%
[15]
  viability, T/C: 96.8%
[16]
  viability, T/C: 96.7%
[3]
  viability, T/C: 91.2%
[4]
  viability, T/C: 102%
[17]
  viability, T/C: 98.2%
[18]
  viability, T/C: 108%
[19]
  viability, T/C: 101%
[20]
  viability, T/C: 105%
[5]
  viability, T/C: 99.1%
[6]
  viability, T/C: 105%
[21]
  viability, T/C: 109%
[22]
  viability, T/C: 98%
[23]
  viability, T/C: 91.8%
[24]
  viability, T/C: 95.4%
[7]
  viability, T/C: 94.4%
[8]
  viability, T/C: 89.5%
[25]
  viability, T/C: 82%
[26]
  viability, T/C: 105%
[27]
  viability, T/C: 96.5%
[28]
  viability, T/C: 89.9%
[9]
  viability, T/C: 105%
[10]
  viability, T/C: 101%
[29]
  viability, T/C: 97.5%
[30]
  viability, T/C: 86.1%
[31]
  viability, T/C: 100%
[32]
  viability, T/C: 92.5%
[11]
  viability, T/C: 101%
[12]
  viability, T/C: 91.4%
[33]
  viability, T/C: 106%
[34]
  viability, T/C: 111%
[35]
  viability, T/C: 101%
[36]
  viability, T/C: 107%

## Nc1ccn(C2OC(CO)C(O)C2(F)F)c(=O)n1 (stereo unspecified) + Cc1cccc(N(C)C(=O)C2C(O)CCN2c2nc(C)cc(C(F)(F)F)c2C#N)c1
Second compound 0.0316 µM
  IC50: > 10 µM
Second compound 0.1 µM
  IC50: > 10 µM
Second compound 0.316 µM
  IC50: > 10 µM
Second compound 1 µM
  IC50: > 10 µM
Second compound 3.16 µM
  IC50: > 10 µM
Second compound 10 µM
  IC50: > 10 µM
[1]
  viability, T/C: 96.2%
[2]
  viability, T/C: 99.7%
[13]
  viability, T/C: 91.8%
[14]
  viability, T/C: 89.8%
[15]
  viability, T/C: 57.8%
[16]
  viability, T/C: 77%
[3]
  viability, T/C: 106%
[4]
  viability, T/C: 91.5%
[17]
  viability, T/C: 85.1%
[18]
  viability, T/C: 67.1%
[19]
  viability, T/C: 90.5%
[20]
  viability, T/C: 52.8%
[5]
  viability, T/C: 91.4%
[6]
  viability, T/C: 102%
[21]
  viability, T/C: 79.3%
[22]
  viability, T/C: 76.7%
[23]
  viability, T/C: 80.4%
[24]
  viability, T/C: 63.5%
[7]
  viability, T/C: 91.8%
[8]
  viability, T/C: 102%
[25]
  viability, T/C: 73.7%
[26]
  viability, T/C: 68.4%
[27]
  viability, T/C: 66%
[28]
  viability, T/C: 66.7%
[9]
  viability, T/C: 95.3%
[10]
  viability, T/C: 103%
[29]
  viability, T/C: 90.4%
[30]
  viability, T/C: 92.5%
[31]
  viability, T/C: 86.1%
[32]
  viability, T/C: 70.7%
[11]
  viability, T/C: 94.8%
[12]
  viability, T/C: 97.2%
[33]
  viability, T/C: 96.6%
[34]
  viability, T/C: 86.9%
[35]
  viability, T/C: 47.2%
[36]
  viability, T/C: 82%

Reference: PubChem BioAssay AID1963825 (Molecular Pharmacology Branch, DTP, NCI, 2024)
